Uterine activity, Pressor activity and Antidiuretic activity data for 8 compounds are collected here from ChEMBL document CHEMBL1123856, “Synthesis and biological activities of arginine-vasopressin analogues with 4-hydroxyproline in position 7” (1987).

The species entered for experiment [1] is Rattus norvegicus. Description: Uterine activity was meseared in isolated rat uterus in solutions in the absence No Mg2+ 0.5 mM in vitro. The class given is functional.
The test system of experiment [2] is Rattus norvegicus. Description: Pressor activity on urethane-anesthetized, phenoxybenzamine-treated rat. The experiment is classed as functional.
In experiment [3] the test system is Rattus norvegicus. Description: Antidiuretic activity on water loaded, ethanol-anesthetized rat. The class given is functional, Urine.
The species named for experiment [4] is Rattus norvegicus. Description: Uterine activity was meseared in isolated rat uterus in solutions in the presence Mg2+ 0.5 mM in vitro. The class given is functional.

Positions of bridges follow the written chain, without caps; N, C: chain ends. Non-standard residues stand in square brackets, D forms with d. Residues, ends and D or L forms follow the SMILES beside them. NMeA = CN[C@@H](C)C(=O)O; Mpa = O=C(O)CCS

In the experiment filed under Rattus norvegicus [1], `NC(=O)CC[C@@H]1NC(=O)[C@H](Cc2ccccc2)NC(=O)[C@H](Cc2ccc(O)cc2)NC(=O)CCSSC[C@@H](C(=O)N2CC=C[C@H]2C(=O)N[C@@H](CCCN=C(N)N)C(=O)NCC(N)=O)NC(=O)[C@H](CC(N)=O)NC1=O` registered a Uterine activity of 69 units/mg. In addition, the Pressor activity with Rattus norvegicus [2] came out at 240 units/mg. In the experiment on Rattus norvegicus [3], the Antidiuretic activity stood at 4130 units/mg.
Compound `CC(C)C[C@H](NC(=O)[C@@H]1CSSC[C@H](N)C(=O)N[C@@H](Cc2ccc(O)cc2)C(=O)N[C@@H](Cc2ccccc2)C(=O)N[C@@H](CCC(N)=O)C(=O)N[C@@H](CC(N)=O)C(=O)N1)C(=O)N[C@@H](CCCN=C(N)N)C(=O)NCC(N)=O` (H-CYFQNCLRG-NH2; disulfide 1-6) had an Antidiuretic activity in the experiment with Rattus norvegicus [3] of 19 units/mg.
Consider `C[C@@H](C(=O)N[C@@H](CCCN=C(N)N)C(=O)NCC(N)=O)N(C)C(=O)[C@@H]1CSSCCC(=O)N[C@@H](Cc2ccc(O)cc2)C(=O)N[C@@H](Cc2ccccc2)C(=O)N[C@@H](CCC(N)=O)C(=O)N[C@@H](CC(N)=O)C(=O)N1` ([Mpa]YFQNC[NMeA]RG-NH2; disulfide 1-6), for which the Uterine activity came to 2 units/mg in the experiment filed under Rattus norvegicus [1] and 8 IU/mg in the experiment listed under Rattus norvegicus [4]. Moreover, the Pressor activity in the experiment with Rattus norvegicus [2] came out at 1 units/mg. In the experiment on Rattus norvegicus [3], the Antidiuretic activity turned out to be 113 units/mg.
Taken in the same sequence, the figures for `NC(=O)CC[C@@H]1NC(=O)[C@H](Cc2ccccc2)NC(=O)[C@H](Cc2ccc(O)cc2)NC(=O)[C@@H](N)CSSC[C@@H](C(=O)N2C[C@H](O)C[C@H]2C(=O)N[C@@H](CCCN=C(N)N)C(=O)NCC(N)=O)NC(=O)[C@H](CC(N)=O)NC1=O` (stereo in doubt; form 1) were 73 units/mg, 268 IU/mg, 4 units/mg and 712 units/mg.
With `NC(=O)CC[C@@H]1NC(=O)[C@H](Cc2ccccc2)NC(=O)[C@H](Cc2ccc(O)cc2)NC(=O)[C@@H](N)CSSC[C@@H](C(=O)N2C[C@H](O)C[C@H]2C(=O)N[C@@H](CCCN=C(N)N)C(=O)NCC(N)=O)NC(=O)[C@H](CC(N)=O)NC1=O` (stereo in doubt; form 2), the Uterine activity in the experiment listed under Rattus norvegicus [1] is 225 units/mg; in the experiment listed under Rattus norvegicus [4] it was 285 IU/mg. Moreover, the Pressor activity in the experiment with Rattus norvegicus [2] came out at 1 units/mg. In the experiment with Rattus norvegicus [3], the Antidiuretic activity amounted to 780 units/mg.
For the compound `NC(=O)CC[C@@H]1NC(=O)[C@H](Cc2ccccc2)NC(=O)[C@H](Cc2ccc(O)cc2)NC(=O)[C@@H](N)CSSC[C@@H](C(=O)N2C[C@H](O)C[C@H]2C(=O)N[C@@H](CCCN=C(N)N)C(=O)NCC(N)=O)NC(=O)[C@H](CC(N)=O)NC1=O` (stereo in doubt; form 3), the Uterine activity in the experiment filed under Rattus norvegicus [1] was determined as 63 units/mg; in the experiment listed under Rattus norvegicus [4], 176 IU/mg. The same compound gave a Pressor activity in the experiment on Rattus norvegicus [2] of 8 units/mg. This compound also showed an Antidiuretic activity with Rattus norvegicus [3] of 614 units/mg.
In turn, `N=C(N)NCCC[C@@H](NC(=O)[C@@H]1CCCN1C(=O)[C@@H]1CSSCCC(=O)N[C@@H](Cc2ccc(O)cc2)C(=O)N[C@@H](Cc2ccccc2)C(=O)N[C@@H](CCC(N)=O)C(=O)N[C@@H](CC(N)=O)C(=O)N1)C(=O)NCC(N)=O` [DESMOPRESSIN] displayed a Uterine activity in the experiment filed under Rattus norvegicus [1] of 28 units/mg. Moreover, the Pressor activity in the experiment on Rattus norvegicus [2] was 346 units/mg. The same compound showed an Antidiuretic activity in the experiment on Rattus norvegicus [3] of 1740 units/mg.
Compound `N=C(N)NCCC[C@H](NC(=O)[C@@H]1CCCN1C(=O)[C@@H]1CSSC[C@H](N)C(=O)N[C@@H](Cc2ccc(O)cc2)C(=O)N[C@@H](Cc2ccccc2)C(=O)N[C@@H](CCC(N)=O)C(=O)N[C@@H](CC(N)=O)C(=O)N1)C(=O)NCC(N)=O` [VASOPRESSIN] registered a Uterine activity in the experiment listed under Rattus norvegicus [1] of 12 units/mg. In the experiment with Rattus norvegicus [3], this compound yielded an Antidiuretic activity of 323 units/mg.
